Our source for the Kd and EC50 values is patent US20240408093A1, “HETEROBIFUNCTIONAL COMPOUNDS AND THEIR USE IN TREATING DISEASE” (HALDA THERAPEUTICS OPCO, INC., priority 2022, published 2024).

The structures appear in SMILES notation. pEC50, pKd: −log10 of the molar value.

The target in assay [1] is T1, EGFR WT (amino acids 669-1011) (Homo sapiens, UniProt P00533).
T1 construct: purchased Eurofins Discovery (KdELECT); host or cells: bacteria (E. coli BL21-derived, T7 phage)
As to the kind of experiment: KdELECT binding assay, EGFR WT. On the procedure:
Exemplary compounds were tested for ability to bind to EGFR WT (amino acids 669-1011, Accession Number NP_005219.2) or EGFR T790M, L858R (amino acids 669-1011 Accession Number NP_005219.2) expressed from bacteria or mammalian cells, respectively. Compounds were tested using the KdELECT assay at Eurofins Discovery.
Kinase-tagged T7 phage strains were prepared in an E. coli host derived from the BL21 strain. E. coli were grown to log-phase and infected with T7 phage and incubated with shaking at 32° C. until lysis. The lysates were centrifuged and filtered to remove cell debris. The remaining kinases were produced in HEK-293 cells and subsequently tagged with DNA for qPCR detection. Streptavidin-coated magnetic beads were treated with biotinylated small molecule ligands for 30 minutes at room temperature to generate affinity resins for kinase assays. The liganded beads were blocked with excess biotin and washed with blocking buffer (SeaBlock (Pierce), 1% BSA, 0.05% Tween 20, 1 mM DTT) to remove unbound ligand and to reduce non-specific binding. Binding reactions were assembled by combining kinases, liganded affinity beads, and test compounds in 1x binding buffer (20% SeaBlock, 0.17× PBS, 0.05% Tween 20, 6 mM DTT). Test compounds were prepared as 111× stocks in 100% DMSO. Kd values were determined using an 11-point 3-fold compound dilution series with three DMSO control points. All compounds for Kd measurements are distributed by acoustic transfer (non-contact dispensing) in 100% DMSO. The compounds were then diluted directly into the assays such that the final concentration of DMSO was 0.9%. All reactions performed in polypropylene 384-well plate. Each was a final volume of 0.02 mL. The assay plates were incubated at room temperature with shaking for 1 hour and the affinity beads were washed with wash buffer (1× PBS, 0.05% Tween 20). The beads were then re-suspended in elution buffer (1× PBS, 0.05% Tween 20, 0.5 μM nonbiotinylated affinity ligand) and incubated at room temperature with shaking for 30 minutes. The kinase concentration in the eluates was measured by qPCR.

For assay [2], the target named is T2, EGFR T790M/L858R kinase domain (Homo sapiens, UniProt P00533, L858R/T790M).
T2 construct: EGFR (amino acids 696-1022, T790M, L858R); expressed in transfected cells; host or cells: HEK293, lentiviral transduction, puromycin selection
The assay can be described thus: EGFR cellular target engagement assay (HEK293 cells stable for EGFR T790M, L858R). In kind it is cell-based. Particulars: 6 hours, read-out: TE50 (the source's name). The protocol: HEK293 cells were cultured in DMEM (Gibco 11995), supplemented with 10% Heat-inactivated FBS (Gibco A38400-01) and 1% Penicillin/Streptomycin (Gibco 15140-122) at 37° C. with 5% CO2 in a humidified tissue culture incubator. Cells were made stable for EGFR (amino acids 696-1022, T790M, L858R) by lentiviral transduction, followed by selection with 1 μg/ml Puromycin Dihydrochloride (Thermo A1113803). Cells were seeded at 30,000 cells/ml in 0.1 ml of complete media in Poly-D-lysine-treated 96-well plates and incubated overnight. Cells were treated with increasing concentrations of compound and let incubate at 37C and 5% CO2 for 6 hours, after which media was aspirated, washed with 1×PBS and cells were lysed in RIPA Lysis and Extraction Buffer (Thermo 89901) supplemented with 5 mM MgCl2, Protease and Phosphatase inhibitor cocktail (Thermo 1861281), and Universal Nuclease (Thermo 88700). Plates with RIPA were shaken at 4° C. at 600 rpm for 15 min. After shaking samples, they were collected and spun down at 21,000 g for 15 min at 4° C. Following centrifugation, […] of lysate was added to Laemmli Sample Buffer (Bio-Rad 1610747) plus 10% beta-mercaptoethanol, boiled for 15 minutes at 65° C. and loaded onto 4-20% Mini-PROTEAN TGX™ Precast Protein Gels (Bio-Rad). Protein was transferred to a nitrocellulose membrane (Thermo LC2000) using the iBlot 2 Dry Blotting System (Thermo). After transfer, membranes were washed in 1× TBST (Bioland Scientific LLC TBST0103) 3× for 5 min. Following the wash, blocking buffer (Rockland MB-070) was added for 1 hour at room temperature. Primary antibodies against EGFR (Cell Signaling Technology 3197) and actin (Cell Signaling Technology 3700S) were added overnight at 4° C. Membranes were then washed again 3× for 5 min in 1× TBST. Secondary antibodies (LI-COR 926-68072 and 926-68073) were added and shaken for 1 hr at room temperature. Membranes were then washed 3× for 5 min in 1×TBST and developed. Membranes were placed on an Odyssey imager (LI-COR).

T2 sequence (P00533 696-1022 T790M/L858R): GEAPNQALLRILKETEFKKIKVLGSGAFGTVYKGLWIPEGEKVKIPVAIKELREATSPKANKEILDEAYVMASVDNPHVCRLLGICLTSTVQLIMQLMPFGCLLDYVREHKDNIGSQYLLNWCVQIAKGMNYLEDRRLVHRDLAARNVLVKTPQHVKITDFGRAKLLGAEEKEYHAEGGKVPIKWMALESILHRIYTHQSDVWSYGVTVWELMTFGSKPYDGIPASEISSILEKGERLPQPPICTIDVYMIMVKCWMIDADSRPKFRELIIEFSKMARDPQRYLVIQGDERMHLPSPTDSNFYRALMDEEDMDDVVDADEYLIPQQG
T1 sequence (P00533 669-1011): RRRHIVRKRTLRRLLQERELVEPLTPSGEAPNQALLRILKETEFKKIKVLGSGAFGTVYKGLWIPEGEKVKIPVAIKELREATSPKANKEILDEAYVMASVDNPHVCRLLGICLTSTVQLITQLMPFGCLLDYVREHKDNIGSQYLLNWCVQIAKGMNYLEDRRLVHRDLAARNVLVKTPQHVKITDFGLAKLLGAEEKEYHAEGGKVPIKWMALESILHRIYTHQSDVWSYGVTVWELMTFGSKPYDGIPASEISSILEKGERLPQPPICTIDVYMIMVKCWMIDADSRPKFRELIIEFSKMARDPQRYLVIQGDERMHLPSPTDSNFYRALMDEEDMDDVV

The term pKd denotes the negative decadic logarithm of the Kd, by convention in mol/L. Turning to `C=C(CN(C(=O)NCc1ccc2c(c1)CN(C1CCC(=O)NC1=O)C2=O)c1ccc(C)c(Cl)c1)C(=O)Nc1cc(Nc2ncc(-c3cn(C)c4ccccc34)cn2)c(OC)cc1N(C)CCN(C)C` (stereo not drawn) [Compound I-42], the pKd in assay [1] is < 5.60. Further, the pEC50 in assay [2] is 5.00 to 5.30.

Turning to `C=C(COc1cc(Cl)cc(NC(=O)NCc2ccc3c(c2)CN(C2CCC(=O)NC2=O)C3=O)c1)C(=O)N[C@@H]1CN(c2nc(Nc3cn(C)nc3OC)c3ncn(C)c3n2)C[C@H]1F` (stereo partly drawn) [Compound I-45], the pKd in assay [1] is 6.30 to 7.30.

With `C=C(COc1ccc(Cl)cc1NC(=O)NCc1ccc2c(c1)CN(C1CCC(=O)NC1=O)C2=O)C(=O)N[C@@H]1CN(c2nc(Nc3cn(C)nc3OC)c3ncn(C)c3n2)C[C@H]1F` (stereo partly drawn) [Compound I-47], the pKd in assay [1] was > 7.30. Further, the pEC50 in assay [2] is 5.30 to 6.60.

Regarding `C=C(COc1cc(Cl)cc(NC(=O)NCc2ccc3c(c2)CN(C2CCC(=O)NC2=O)C3=O)c1)C(=O)N1C[C@H](COc2nc(Nc3cnn(C)c3)nc3[nH]cc(Cl)c23)[C@@H](OC)C1` (stereo partly drawn) [Compound I-54], in assay [1], the pKd was < 5.60. Further, in assay [2], the pEC50 is 5.30 to 6.60.

For the compound `C=C(COc1cc(Cl)cc(NC(=O)NCc2ccc3c(c2)CN(C2CCC(=O)NC2=O)C3=O)c1)C(=O)Nc1cccc(Oc2nc(Nc3ccc(N4CCN(C)CC4)cc3)nc3ccsc23)c1` (stereo not drawn) [Compound I-55], the pKd in assay [1] is < 5.60. Also, in assay [2], the pEC50 was < 5.00.

On to `C=C(COc1cc(Cl)cc(NC(=O)NCc2ccc3c(c2)CN(C2CCC(=O)NC2=O)C3=O)c1)C(=O)Nc1cc(Nc2nccc(-c3cn(C)c4ccccc34)n2)c(OC)cc1N(C)CCN(C)C` (stereo not drawn) [Compound I-59], for which the pKd in assay [1] was > 7.30. Further, the pEC50 in assay [2] was 5.30 to 6.60.

As for `C=C(COc1c(Cl)cccc1NC(=O)NCc1ccc2c(c1)CN(C1CCC(=O)NC1=O)C2=O)C(=O)Nc1cc(Nc2nccc(-c3cn(C)c4ccccc34)n2)c(OC)cc1N(C)CCN(C)C` (stereo not drawn) [Compound I-60], the pKd in assay [1] is 6.30 to 7.30. For the same compound, the pEC50 in assay [2] is > 6.60.

Regarding `C=C(COc1cc(Cl)cc(NC(=O)NCc2ccc3c(c2)CN(C2CCC(=O)NC2=O)C3=O)c1)C(=O)Nc1cccc(-c2cccc3cnc(Nc4ccc(N5CCN(CCO)CC5)c(F)c4F)nc23)c1` (stereo not drawn) [Compound I-61], the pKd in assay [1] is 5.60 to 6.30. In addition, the pEC50 in assay [2] was < 5.00.

For the compound `C=C(COc1c(Cl)cccc1NC(=O)NCc1ccc2c(c1)CN(C1CCC(=O)NC1=O)C2=O)C(=O)N[C@@H]1CN(c2nc(Nc3cn(C)nc3OC)c3ncn(C)c3n2)C[C@H]1F` (stereo partly drawn) [Compound I-69], the pEC50 in assay [2] is 5.30 to 6.60.

As to `C=C(CN(C(=O)NCc1ccc2c(c1)CN(C1CCC(=O)NC1=O)C2=O)c1ccc(C)c(Cl)c1)C(=O)Nc1cccc(Oc2nc(Nc3ccc(N4CCN(C)CC4)cc3)nc3ccsc23)c1` (stereo not drawn) [Compound I-70], in assay [2], the pEC50 is < 5.00.

With `C=C(CN(C(=O)NCc1ccc2c(c1)CN(C1CCC(=O)NC1=O)C2=O)c1ccc(C)c(Cl)c1)C(=O)N1C[C@@H](COc2nc(Nc3cnn(C)c3)nc3[nH]cc(Cl)c23)[C@H](OC)C1` (stereo partly drawn) [Compound I-71], in assay [2], the pEC50 was < 5.00.

As for `C=C(CN1C(=O)CCC(N2Cc3cc(CNC(=O)Nc4ccc(C)c(Cl)c4)ccc3C2=O)C1=O)C(=O)Nc1cc(Nc2ncc(-c3cn(C)c4ccccc34)cn2)c(OC)cc1N(C)CCN(C)C` (stereo not drawn) [Compound I-87], the pKd in assay [1] was < 5.60. In addition, the pEC50 in assay [2] is > 6.60.

On to `C=C(COC(=O)n1c(CNc2nc(N3CCNCC3)nc3c(Br)cnn23)nc2cc(C)ccc21)C(=O)N1C[C@H](COc2nc(Nc3cnn(C)c3)nc3[nH]cc(Cl)c23)[C@@H](OC)C1` [Compound V-4], for which the pKd in assay [1] is < 5.60. Moreover, the pEC50 in assay [2] is < 5.00.

The compound `C=C(COc1cc(-c2ccccn2)ccc1CNc1nc(N[C@H](CC)CO)nc2c1ncn2C(C)C)C(=O)N[C@@H]1CN(c2nc(Nc3cn(C)nc3OC)c3ncn(C)c3n2)C[C@H]1F` [II-183] gave a negative logarithm of the Kd (pKd) in assay [1] of 6.30 to 7.30. Further, the pEC50 in assay [2] was 5.30 to 6.60.

`C=C(COC(=O)N1CCN(c2nc(NCc3nc4cc(C)ccc4[nH]3)n3ncc(Br)c3n2)CC1)C(=O)N1C[C@H](COc2nc(Nc3cnn(C)c3)nc3[nH]cc(Cl)c23)[C@@H](OC)C1` [II-185]: in assay [1], the pKd was < 5.60. In addition, the pEC50 in assay [2] was < 5.00.

As for `C=C(CN1CCN(c2nc(NCc3nc4cc(C)ccc4[nH]3)n3ncc(Br)c3n2)CC1)C(=O)Nc1cc(Nc2nccc(-c3cn(C)c4ccccc34)n2)c(OC)cc1N(C)CCN(C)C` [II-188], in assay [1], the pKd is > 7.30. In addition, in assay [2], the pEC50 was > 6.60.

As to `C=C(CN1CCN(c2nc(NCc3nc4cc(C)ccc4[nH]3)n3ncc(Br)c3n2)CC1)C(=O)Nc1cccc(-c2cccc3cnc(Nc4ccc(N5CCN(CCO)CC5)c(F)c4F)nc23)c1` [II-191], the pKd in assay [1] is < 5.60. Also, in assay [2], the pEC50 is < 5.00.
